# Article PMC11597089, “Kratom Alkaloids: A Blood–Brain Barrier Specific Membrane Permeability Assay-Guided Isolation and Cyclodextrin Complexation Study” (Molecules, 2024)
# What was measured:
# [1] = ACE complex stability, HxDMS-α-CD; type: physicochemical; conditions: hexakis-(2,3-O-dimethyl, 6-O-sulfo)-α-CD, 30 mM phosphate buffer pH 7.4, 25 °C
# Description: (§1) To investigate the CD complexation behavior of the four kratom alkaloids, we aimed to develop an ACE method for a systematic comparative study. […] To ensure sufficient buffer capacity and to avoid excessive current and Joule heat generation, the buffer concentration was set to 30 mM, and the applied voltage was 15 kV.
# (§2) The ACE experiments were performed by using Agilent 7100 and HP^3DCE instruments (Agilent Technologies, Waldbronn, Germany). Untreated fused silica capillaries (total length of 48.5 cm, effective length of 40 cm, inner diameter of 50 μm) were purchased from Agilent Technologies. The new capillaries were conditioned with a 1 M NaOH wash for 1 h, followed by a 30 min wash each with 0.1 M NaOH and purified water. Prior to all runs, the capillary was preconditioned by rinsing with background electrolyte for 3 min. During the measurements, 30 mM phosphate buffer at pH 7.4 (30 mM Na2HPO4-NaOH) was used. The background electrolyte contained CDs at various concentrations. Stock solutions of the studied kratom alkaloids (mitragynine, paynantheine, speciogynine, speciociliatine) were prepared separately in methanol (1 mg/mL), and, right before the measurements, appropriate dilutions with purified water were used to prepare the sample solutions, applying 0.1% DMSO as the electroosmotic flow (EOF) marker. The samples were injected hydrodynamically at 40 mbar for 3 s. The positive polarity voltage was set to 15 kV, and the capillary was set to 25 °C. The electropherograms were recorded at four wavelengths (200 nm, 210 nm, 215 nm, and 220 nm), and the data were evaluated at 215 nm. In each case, three parallel measurements were performed. The measurements were evaluated using Origin and CEval software (v. 0.6i3).
# (§3) In order to determine the complex stability constants that characterized the strength of the complexes, the first step was to determine the effective mobility of the analyte at specific CD concentrations. Triangular peaks caused by electromigration dispersion are often observed in ACE measurements.
# (§4) Assuming a 1:1 complexation ratio and that the equilibrium CD concentration is almost equal to the total CD concentration, a relationship between the effective mobility relative to the EOF and the complex stability constant can be described by Function (4) (4) μeff=μA+μACDKstabCD/1+KstabCD where µeff is the effective mobility of the analyte, µA and µACD are the free and complexed analyte mobilities, [CD] is the concentration of the selector, and Kstab is the complex stability constant.
# (§5) In order to calculate the exact, apparent, averaged complex stability constant values, viscosity correction and ionic strength correction were used.
# [2] = ACE complex stability, MA-β-CD; type: physicochemical; conditions: mono-(6-N-amino-6-deoxy)-β-CD, positively charged, 30 mM phosphate buffer pH 7.4, 25 °C
# Description: as §1, §2, §3, §4, §5
# [3] = PAMPA-BBB permeability assay; type: in vitro ADME, porcine; conditions: for in vitro BBB permeability: PAMPA-BBB, in words; for Papp at 4 h, 100 µM: pig, PAMPA, read-out: logPe PAMPA-BBB (n = 9) (converted)
# Description: Kratom extracts were tested for the membrane permeability of their constituents in a PAMPA-BBB assay. […] The blood–brain barrier-specific assay was tested and optimized for natural products by Könczöl et al.; this PAMPA-BBB assay was therefore chosen to determine the BBB permeability of the kratom constituents. […] It should be noted, however, that among the minor components that were not the focus of this study, there may be BBB+ compounds with significant biological activity.
# All four isolated kratom alkaloids were also tested in the PAMPA-BBB model. As it can be seen in Table 1, all the investigated compounds had logPe values of between −4.42 and −4.77, which were greater than −6.0; according to Könczöl et al., this value effectively discriminates between compounds with good (BBB+) and poor (BBB−) blood–brain barrier permeability.
# PAMPA-BBB was used to determine the effective permeability (Pe) for some extracts and the isolated compounds. Stock solutions (10 mM in DMSO) were diluted with the buffer (pH 7.4) to obtain the donor solutions (composition: 594.0 μL buffer + 6.0 μL stock solution). The buffer was prepared as follows: one PBS (phosphate-buffered saline, pH 7.4; Sigma Aldrich, Budapest, Hungary) tablet dissolved in 200.0 mL distilled water. Donor solutions were filtered through Phenex-RC 15 mm, 0.2 μm syringe filters (Gen-Lab Ltd., Budapest, Hungary).
# For PAMPA-BBB, 5 μL of porcine polar brain lipid extract (PBLE) solution (16.0 mg of PBLE + 8.0 mg of cholesterol dissolved in 600.0 μL of n-dodecane) was applied to each well of 96-well polycarbonate-based filter donor plates (top plate) (Multiscreen™-IP, MAIPN4510, pore size 0.45 μm; Merck). The 96-well PTFE acceptor plates (bottom plates) (Multiscreen Acceptor Plate, MSSACCEPTOR; Merck) were filled with 300.0 μL of buffer solution (0.01 M PBS buffer, pH 7.4). The donor plate was placed upon the acceptor plate, and both plates were incubated together at 37 °C for 4 h in a Heidolph Titramax 1000 Vibrating platform shaker (Heidolph, Schwabach, Germany).
# After incubation, sandwich plates were separated, and the concentrations of each compound in the starting donor solution and in the acceptor and donor wells were determined in triplicate by the chromatographic peak areas derived from the UHPLC-UV method described above. The UV spectra and chromatograms were recorded at 200–400 nm, and the chromatograms acquired at the UV absorption maxima of each compound were used for data evaluation. The effective permeability and the membrane retention in PAMPA-BBB were calculated by Equations (1) and (2), respectively:(1) Pe=−2.303/A(t−τSS)·(VA·VD/VA+VD)·lg[1−(VA+VD/(1−MR)·VD)×(CA(t)/CD(0))] where Pe is the effective permeability coefficient (cm/s), A is the filter area (0.24 cm^2), VD and VA are the volumes in the donor (0.15 cm^3) and acceptor phases (0.30 cm^3), t is the incubation time (s), τSS is the time (s) to reach the steady state (240 s), CD(t) is the concentration (mol/cm^3) of the compound in the donor phase at time t, CD(0) is the concentration (mol/cm^3) of the compound in the donor phase at time 0, and MR is the estimated membrane retention factor (the estimated mole fraction of solute lost to the membrane), defined as (2) MR=1−CD(t)/CD(0)−VA/VDCA(t)/CD(0)
# All experiments were performed in triplicate on three consecutive days (n = 9); caffeine standard was used as the positive control, with rutin as the negative control.
# [4] = ACE complex stability, β-CD; type: physicochemical; conditions: 30 mM phosphate buffer pH 7.4, 25 °C, 15 kV, 215 nm
# Description: as §1, §2, §3, §4, §5
# [5] = ACE complex stability, ODMS-γ-CD; type: physicochemical; conditions: octakis-(2,3-O-dimethyl, 6-O-sulfo)-γ-CD, 30 mM phosphate buffer pH 7.4, 25 °C
# Description: as §1, §2, §3, §4, §5
# [6] = ACE complex stability, HPA-β-CD; type: physicochemical; conditions: mono-6^A-(3-hydroxy)propylamino-β-CD, positively charged, 30 mM phosphate buffer pH 7.4, 25 °C
# Description: as §1, §2, §3, §4, §5
# [7] = ACE complex stability, Succ-β-CD; type: physicochemical; conditions: succinyl-β-CD DS~6, 30 mM phosphate buffer pH 7.4, 25 °C
# Description: as §1, §2, §3, §4, §5
# [8] = pH 7.4, 37 °C, 4 h, n = 9, Pe in cm/s
Compound,complex stability constant (Kstab) with HxDMS-α-CD [1] [M⁻¹],complex stability constant (Kstab) with MA-β-CD [2] [M⁻¹],in vitro BBB permeability [3],"Papp at 4 h, 100 µM [3, 8] [×10⁻⁶ cm/s]",complex stability constant (Kstab) with β-CD [4] [M⁻¹],complex stability constant (Kstab) with ODMS-γ-CD [5] [M⁻¹],complex stability constant (Kstab) with HPA-β-CD [6] [M⁻¹],complex stability constant (Kstab) with Succ-β-CD [7] [M⁻¹],"logPe PAMPA-BBB (n = 9) [3, 8]"
"CC[C@@H]1CN2CCc3c([nH]c4cccc(OC)c34)[C@H]2C[C@@H]1/C(=C\OC)C(=O)OC [Speciociliatine, speciociliatine]",240 ± 20,< 10,excellent,26.3,35 ± 3,230 ± 15,< 10,470 ± 35,–
"C=C[C@H]1CN2CCc3c([nH]c4cccc(OC)c34)[C@@H]2C[C@@H]1/C(=C\OC)C(=O)OC [Paynantheine, paynantheine]",110 ± 8,< 10,excellent,24.5,145 ± 15,280 ± 25,< 10,360 ± 30,–
"CC[C@H]1CN2CCc3c([nH]c4cccc(OC)c34)[C@@H]2C[C@@H]1/C(=C\OC)C(=O)OC [Speciogynine, speciogynine]",40 ± 4,< 10,excellent,17,65 ± 9,250 ± 15,< 10,840 ± 80,–
mitragynine,50 ± 10,< 10,excellent,–,145 ± 20,80 ± 7,< 10,375 ± 20,−4.42 ± 0.61
